Test results as given in patent US20250243238A1, “TETRAZINE AMINO ACIDS AND METHODS FOR THEIR PRODUCTION AND USE” (Oregon State University, priority 2024, published 2025).

Legend:
[1] = system: Mb-PylRS/tRNACUA pairs D4 and E1; assay: Efficiency, fidelity and permissivity of evolved synthetases: GFP150-TAG expression in E. coli with Tet ncAA; format: cell-based, Methanosarcina barkeri; settings: synthetases D4 and E1
Procedure: (§1) To incorporate Tet ncAAs in the protein, a GCE machinery was developed to encode Tet ncAAs into the protein in response to TAG codon suppression with evolving orthogonal aaRS/tRNAcuA pair. The permissibility of developed synthetases for structurally parallel Tet ncAA derivatives was evaluated in 25 mL scale in presence and absence of 0.5 mM Tet ncAA.
(§2) Efficiency and fidelity of selected synthetases. The efficiency and fidelity of the selected synthetases were measured by expressing GFP150 in 50 mL AIM with and without 0.5 mM Tet4-Ph. DH10b cells containing the selected pBK-RSs and the pALS-GFP150TAG plasmids, were used to inoculate 5 mL of NIM containing kanamycin (50 μg/mL) and tetracycline (25 μg/mL). Cells were grown for 16 hours at 37° C. shaking at 250 rpm. The saturated NIM cultures (500 μL) were used to inoculate in 50 mL AIM containing kanamycin (50 μg/mL) and tetracycline (25 μg/mL) and measured fluorescence using a Turner Biosystems Picofluor fluorimeter diluting 100 μL cell culture in 1.9 mL water. Two synthetases D4 and E1 for Tet4-Ph were identified to have good efficiency and fidelity. The selected two synthetases are differ at two mutation sites C313A/G and W382I/V respectively.
(§3) Permissivity screen for Tet4-Pyr with selected synthetases. To assess if the top four selected RSs for Tet4-Ph could incorporate Tet4-Pyr, expressions of GFP150TAG with Tet4-Pyr were evaluated. Using the above efficiency and fidelity method, 5 mL AIM separate cultures were inoculated with cells containing the pBK-RSs/pALS-GFP150. Tet4-Pyr (0.5 mM) was added to cultures from a 50 mM DMF ncAA stock solution. Cultures were grown for 30-36 hours at 37° C. and 250 rpm. Fluorescence of the culture was measured by diluting 100 μL cell culture in 1.9 mL water.
(§4) Expression and purification of GFP150-TAG-Tet4. […] Protein concentration was determined by measuring absorbance at 280 nm. Protein purity was assessed using SDS-PAGE.

[2] = Stability and reactivity of incorporated Tet ncAA inside protein on storage in PBS; format: physicochemical
Procedure: The stability and reaction efficiency of incorporated Tet ncAAs in proteins was investigated. […] The SDS-PAGE gel mobility shift assay and mass spectrometry analysis of the incorporated Tet-v2.0, Tet-v3.0 and Tet-v4.0 derivatives confirmed their stability and reactivity with sTCO.
Mobility shift assay. Labeling efficiency and purity of Tet-containing proteins have been verified by reacting with 10 eqv. sTCO-PEG5k under PBS (pH 7.1) for 10 minutes at room temperature and examined the mobility shift of the reacted proteins in SDS-PAGE gel. The mobility shift assay helps to provide an insight into the reaction efficiency of Tet-containing proteins and also quantifies the amount of reactive Tet ncAA present in protein and measures if there is any misincorporation or Tet-degradation by showing unreactive protein.
In addition, to assess their stability and reactivity more rigorously, GFP-Tet-v4.0 (Ph, 3-Me-Ph, 3-F-Ph and Pyr) were incubated at 4° C. and room temperature (RT) under 50 mM PBS (pH 7.1) with 100 mM imidazole and studied their reaction efficiency for another 8 days.
Mass spectrometry. The site-specific labelling reaction between Tet ncAA and sTCO is quantitative inside protein was confirmed by ESI-Q-TOF mass spectrometry. […] No other peak has been detected for sTCO exposed samples which verified that the GFP-Tet reacts with sTCO quantitatively without involving side reactions.

[3] = system: Pyl-tRNA/RS pairs (Tet4 E1 and D4 synthetases); assay: Tet4 ncAA incorporation into GFP150-TAG in HEK293T cells, suppression efficiency by flow cytometry; format: cell-based, Methanosarcina barkeri; settings: flow cytometry
Procedure: (§5) To access newly developed Tet4.0 derivatives into mammalian cells, an optimized eukaryotic expression system was used and their stability and reaction efficiency were validated inside living cells. The permissibility of Tet-v4.0 derivatives into eukaryotic protein was tested with an evolved synthetase Tet-v4.0 E1 and D4 co-transfected with the reporter plasmid pAcBac1-sfGFP-TAG150 into the HEK293T cells and supplemented with 100 μM each of five different Tet-v4.0 (Ph, 3-Me-Ph, 3-F-Ph, 4-F-Ph, and Pyr) derivatives side-by-side.
(§6) The compatibility of the Tet4 system with mammalian cells was explored. Specifically, the ability of Tet4 to be incorporated into proteins expressed in HEK293T cells, an immortalized human embryonic kidney cell line, was explored. […] Genes for Tet4 E1 and D4 synthetases were cloned with a terminal nuclear export sequence into the eukaryotic expression Pyl-tRNA/RS vector pAcBac1. Pyl-tRNA/RS pairs were then co-transfected with pAcBac1-GFP150-TAG into HEK293T cells and incubated either in the absence of ncAA, or with various concentrations of Tet4 ncAAs, and suppression efficiencies were assessed using flow cytometry. Tet4-Ph and Tet4-Pyr were incorporated into GFP about 50% as well as the Tet-v3.0 system, Tet3-Bu. As with Tet4 incorporation into E. coli expressed proteins, the highest suppression efficiencies in HEK293T cells were obtained with Mb-PylRS synthetase E1 and Tet4-Ph ncAA. Selective incorporation and reactivity of GFP150-Tet4 proteins were verified in whole-cell HEK293T lysates using sTCO-PEG5k-induced SDS-PAGE mobility shifts, and in purified proteins by mass spectrometry.
(§7) Transfection of HEK293T cells and imaging method. HEK293T cells were plated in a 24-well plate at the density of 40% confluency. Cells were transfected the next day using jetPRIME reagent according to the manufacturer's protocol. Briefly, 67 ng of pAcBac1-NES-D4-RS or pAcBac1-NES-E1-RS and 555 ng of pAcBac1-GFP-150TAG plasmid DNA were diluted with 50 μL of jetPRIME buffer. […] GFP expression was verified by fluorescence microscopy on EVOS FL imaging system.

[4] = target: T1, Mb-PylRS/tRNACUA pairs D4 and E1 (Methanosarcina barkeri, UniProt Q6WRH6, C313A/N311S/V366H/W382I); assay: Efficiency, fidelity and permissivity of evolved synthetases: GFP150-TAG expression in E. coli with Tet ncAA; format: cell-based; settings: synthetase D4 only
T1 construct: D4-Py1RS (Protein); expressed in transfected cells; host or cells: E. coli DH10b carrying pBK-RS and pALS-GFP150TAG
T1 sequence (Q6WRH6 whole entry N311S/C313A/V366H/W382I): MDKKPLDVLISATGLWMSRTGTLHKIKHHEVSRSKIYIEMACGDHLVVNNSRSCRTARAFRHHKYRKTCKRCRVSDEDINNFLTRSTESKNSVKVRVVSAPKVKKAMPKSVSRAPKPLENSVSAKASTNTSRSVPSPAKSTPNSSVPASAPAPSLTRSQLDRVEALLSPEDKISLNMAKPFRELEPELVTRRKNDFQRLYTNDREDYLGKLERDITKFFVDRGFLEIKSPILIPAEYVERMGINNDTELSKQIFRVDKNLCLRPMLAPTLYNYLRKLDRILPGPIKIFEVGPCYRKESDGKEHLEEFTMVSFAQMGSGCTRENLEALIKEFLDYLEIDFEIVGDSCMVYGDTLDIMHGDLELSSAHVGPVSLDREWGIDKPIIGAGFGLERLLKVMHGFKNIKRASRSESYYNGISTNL
Procedure: as §1, §2, §3, §4

[5] = target: T2, Pyl-tRNA/RS pairs (Tet4 E1 and D4 synthetases) (Methanosarcina barkeri, UniProt Q6WRH6, C313A/N311S/V366H/W382I); assay: Tet4 ncAA incorporation into GFP150-TAG in HEK293T cells, suppression efficiency by flow cytometry; format: cell-based; settings: 100 μM ncAA, synthetase D4
T2 construct: D4-Py1RS (Protein); expressed in transfected cells; host or cells: HEK293T
T2 sequence (Q6WRH6 whole entry N311S/C313A/V366H/W382I): as above
Procedure: as §5, §6, §7

Row | SMILES | yield of GFP150-TAG expressed with the ncAA [1] [mg/L] | stability inside protein ([2]; PBS pH 7.1, both 4° C. and RT, after 8 days) | incorporation into GFP relative to the Tet-v3.0 system, Tet3-Bu [3] | yield of GFP150-TAG expressed with the ncAA [4] | yield of GFP150-TAG expressed with the ncAA ([4]; listed as Tet-v4.0Pyr) [mg/L] | stability and reactivity inside protein ([2]; GFP-Tet protein, PBS pH 7.1, room temperature) | incorporation into GFP-TAG150 [5]
1 | N[C@@H](Cc1nnc(-c2ccccc2)nn1)C(=O)O [Tet4-Ph, (S)-2-amino-3-(6-phenyl-1,2,4,5-tetrazin-3-yl)propanoic acid] | 55 to 60 | highly stable | about 50% | – | – | – | –
2 | N[C@@H](Cc1nnc(-c2ccccn2)nn1)C(=O)O [Tet4-Pyr, (S)-2-amino-3-(6-(pyridin-2-yl)-1,2,4,5-tetrazin-3-yl)propanoic acid] | – | – | about 50% | about 40 mg/L | 35 to 40 | degraded with time | relatively high yield
